From patent publication US20240365781A1, “SYNERGISTICALLY EFFECTIVE HERBICIDE COMPOSITION COMPRISING PELARGONIC ACID AND FLAZASULFURON” (Belchim Crop Protection NV, priority 2017, published 2024)

How the values were obtained:
Assay in all cases: post-emergence field trial under rows of apple trees, 150-200 L water/ha (Examples 10-12)
Assay type in all cases: in vivo
[1] = tested on: Chenopodium album
Procedure: (§1) Herbicidal activity was determined by performing a post-emergence test. […] The corresponding mixture was in the form of a spray solution. Besides, spray solutions of individual compositions comprising pelargonic acid or flazasulfuron were used.
(§2) The spray solution was applied on plants of unwanted vegetation present on fields where perennial crops were grown.
(§3) After 5 to 88 days after application of the spray solution, the degree of damage to the unwanted vegetation is rated in % of plants of unwanted vegetation that were killed. Tests were performed on test fields (field trials).

[2] = tested on: Capsella bursa-pastoris
Procedure: as §1, §2, §3

[3] = tested on: Taraxacum officinalis
Procedure: as §1, §2, §3

[4] = tested on: Senecio vulgaris
Procedure: as §1, §2, §3

[5] = tested on: Poa annua
Procedure: as §1, §2, §3

[6] = tested on: Sonchus oleracea
Procedure: as §1, §2, §3

CCCCCCCCC(=O)O [Pelargonic acid, nonanoic acid]
herbicidal effect (%) ([1]; Chenopodium album/30 d, 5440 g of active compound/ha): 55%
herbicidal effect (%) ([1]; Chenopodium album/30 d, 8160 g of active compound/ha): 58%
herbicidal effect (%) ([1]; Chenopodium album/30 d, 10880 g of active compound/ha): 70%
herbicidal effect (%) ([1]; Chenopodium album/57 d, 5440 g of active compound/ha): 0%
herbicidal effect (%) ([1]; Chenopodium album/57 d, 8160 g of active compound/ha): 0%
herbicidal effect (%) ([1]; Chenopodium album/57 d, 10880 g of active compound/ha): 0%
herbicidal effect (%) ([1]; Chenopodium album/78 d, 5440 g of active compound/ha): 0%
herbicidal effect (%) ([1]; Chenopodium album/78 d, 8160 g of active compound/ha): 0%
herbicidal effect (%) ([1]; Chenopodium album/78 d, 10880 g of active compound/ha): 0%
herbicidal effect (%) ([2]; Capsella bursa-pastoris/6 d, 5440 g of active compound/ha): 18%
herbicidal effect (%) ([2]; Capsella bursa-pastoris/6 d, 8160 g of active compound/ha): 45%
herbicidal effect (%) ([2]; Capsella bursa-pastoris/6 d, 10880 g of active compound/ha): 45%
herbicidal effect (%) ([2]; Capsella bursa-pastoris/16 d, 5440 g of active compound/ha): 53%
herbicidal effect (%) ([2]; Capsella bursa-pastoris/16 d, 8160 g of active compound/ha): 40%
herbicidal effect (%) ([2]; Capsella bursa-pastoris/16 d, 10880 g of active compound/ha): 55%
herbicidal effect (%) ([2]; Capsella bursa-pastoris/30 d, 5440 g of active compound/ha): 55%
herbicidal effect (%) ([2]; Capsella bursa-pastoris/30 d, 8160 g of active compound/ha): 53%
herbicidal effect (%) ([2]; Capsella bursa-pastoris/30 d, 10880 g of active compound/ha): 60%
herbicidal effect (%) ([2]; Capsella bursa-pastoris/57 d, 5440 g of active compound/ha): 0%
herbicidal effect (%) ([2]; Capsella bursa-pastoris/57 d, 8160 g of active compound/ha): 0%
herbicidal effect (%) ([2]; Capsella bursa-pastoris/57 d, 10880 g of active compound/ha): 0%
herbicidal effect (%) ([3]; Taraxacum officinalis/5 d, 5440 g of active compound/ha): 11%
herbicidal effect (%) ([3]; Taraxacum officinalis/18 d, 5440 g of active compound/ha): 0%
herbicidal effect (%) ([3]; Taraxacum officinalis/18 d, 8160 g of active compound/ha): 0%
herbicidal effect (%) ([3]; Taraxacum officinalis/18 d, 10880 g of active compound/ha): 9%
herbicidal effect (%) ([3]; Taraxacum officinalis/32 d, 5440 g of active compound/ha): 0%
herbicidal effect (%) ([3]; Taraxacum officinalis/32 d, 8160 g of active compound/ha): 0%
herbicidal effect (%) ([3]; Taraxacum officinalis/32 d, 10880 g of active compound/ha): 0%
herbicidal effect (%) ([3]; Taraxacum officinalis/61 d, 5440 g of active compound/ha): 0%
herbicidal effect (%) ([3]; Taraxacum officinalis/61 d, 8160 g of active compound/ha): 0%
herbicidal effect (%) ([3]; Taraxacum officinalis/61 d, 10880 g of active compound/ha): 0%
herbicidal effect (%) ([3]; Taraxacum officinalis/88 d, 5440 g of active compound/ha): 0%
herbicidal effect (%) ([3]; Taraxacum officinalis/88 d, 8160 g of active compound/ha): 0%
herbicidal effect (%) ([3]; Taraxacum officinalis/88 d, 10880 g of active compound/ha): 0%
herbicidal effect (%) ([4]; Senecio vulgaris/6 d, 5440 g of active compound/ha): 26%
herbicidal effect (%) ([4]; Senecio vulgaris/6 d, 8160 g of active compound/ha): 29%
herbicidal effect (%) ([4]; Senecio vulgaris/6 d, 10880 g of active compound/ha): 29%
herbicidal effect (%) ([4]; Senecio vulgaris/28 d, 5440 g of active compound/ha): 9%
herbicidal effect (%) ([4]; Senecio vulgaris/28 d, 10880 g of active compound/ha): 11%
herbicidal effect (%) ([4]; Senecio vulgaris/58 d, 10880 g of active compound/ha): 33%
herbicidal effect (%) ([5]; Poa annua/6 d, 5440 g of active compound/ha): 23%
herbicidal effect (%) ([5]; Poa annua/6 d, 8160 g of active compound/ha): 40%
herbicidal effect (%) ([5]; Poa annua/6 d, 10880 g of active compound/ha): 45%
herbicidal effect (%) ([5]; Poa annua/16 d, 5440 g of active compound/ha): 55%
herbicidal effect (%) ([5]; Poa annua/16 d, 8160 g of active compound/ha): 58%
herbicidal effect (%) ([5]; Poa annua/16 d, 10880 g of active compound/ha): 60%
herbicidal effect (%) ([5]; Poa annua/30 d, 5440 g of active compound/ha): 53%
herbicidal effect (%) ([5]; Poa annua/30 d, 8160 g of active compound/ha): 55%
herbicidal effect (%) ([5]; Poa annua/30 d, 10880 g of active compound/ha): 65%
herbicidal effect (%) ([5]; Poa annua/57 d, 5440 g of active compound/ha): 0%
herbicidal effect (%) ([5]; Poa annua/57 d, 8160 g of active compound/ha): 0%
herbicidal effect (%) ([5]; Poa annua/57 d, 10880 g of active compound/ha): 0%
herbicidal effect (%) ([5]; Poa annua/78 d, 5440 g of active compound/ha): 0%
herbicidal effect (%) ([5]; Poa annua/78 d, 8160 g of active compound/ha): 0%
herbicidal effect (%) ([5]; Poa annua/78 d, 10880 g of active compound/ha): 1%
herbicidal effect (%) ([6]; Sonchus oleracea/6 d, 5440 g of active compound/ha): 25%
herbicidal effect (%) ([6]; Sonchus oleracea/6 d, 8160 g of active compound/ha): 50%
herbicidal effect (%) ([6]; Sonchus oleracea/6 d, 10880 g of active compound/ha): 55%
herbicidal effect (%) ([6]; Sonchus oleracea/16 d, 5440 g of active compound/ha): 48%
herbicidal effect (%) ([6]; Sonchus oleracea/16 d, 8160 g of active compound/ha): 43%
herbicidal effect (%) ([6]; Sonchus oleracea/16 d, 10880 g of active compound/ha): 45%
herbicidal effect (%) ([6]; Sonchus oleracea/30 d, 5440 g of active compound/ha): 40%
herbicidal effect (%) ([6]; Sonchus oleracea/30 d, 8160 g of active compound/ha): 48%
herbicidal effect (%) ([6]; Sonchus oleracea/30 d, 10880 g of active compound/ha): 53%
herbicidal effect (%) ([6]; Sonchus oleracea/57 d, 5440 g of active compound/ha): 0%
herbicidal effect (%) ([6]; Sonchus oleracea/57 d, 8160 g of active compound/ha): 0%
herbicidal effect (%) ([6]; Sonchus oleracea/57 d, 10880 g of active compound/ha): 0%
herbicidal effect (%) ([6]; Sonchus oleracea/78 d, 5440 g of active compound/ha): 0%
herbicidal effect (%) ([6]; Sonchus oleracea/78 d, 8160 g of active compound/ha): 0%
herbicidal effect (%) ([6]; Sonchus oleracea/78 d, 10880 g of active compound/ha): 0%
